Laboratory results: article PMC9005681, “Use of AD Informer Set compounds to explore validity of novel targets in Alzheimer's disease pathology” (Alzheimer's & Dementia : Translational Research & Clinical …, 2022)
Where “and” joins values, the source holds several entries; their conditions need not be identical. Equal values may be shown once.

How the values were obtained:
Experiment in all cases: PDSP GPCR panel primary binding assays at 10 μM
Details in all cases: primary assay
[1] = target: T1, cloned human or rodent CNS receptors, channels, and transporters (PDSP panel) (Homo sapiens, UniProt P20309)
T1 construct: expressed in transfected cells
Method in brief: (§1)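 PDSP panel of 46–47 cloned human or rodent CNS receptors, channels and transporters; radioligand displacement by compound at 10 μM, in quadruplicate. Where average displacement exceeded 50%, secondary binding followed as 11-point dose-response in triplicate (none for H3, PBR or GABAA).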

[2] = target: T2, cloned human or rodent CNS receptors, channels, and transporters (PDSP panel) (Homo sapiens, UniProt P21728)
T2 construct: expressed in transfected cells
Method in brief: as §1

[3] = target: T3, cloned human or rodent CNS receptors, channels, and transporters (PDSP panel) (Homo sapiens, UniProt P28221)
T3 construct: expressed in transfected cells
Method in brief: as §1

[4] = target: T4, cloned human or rodent CNS receptors, channels, and transporters (PDSP panel) (Homo sapiens, UniProt P18089)
T4 construct: expressed in transfected cells
T4 sequence (P18089 1-450): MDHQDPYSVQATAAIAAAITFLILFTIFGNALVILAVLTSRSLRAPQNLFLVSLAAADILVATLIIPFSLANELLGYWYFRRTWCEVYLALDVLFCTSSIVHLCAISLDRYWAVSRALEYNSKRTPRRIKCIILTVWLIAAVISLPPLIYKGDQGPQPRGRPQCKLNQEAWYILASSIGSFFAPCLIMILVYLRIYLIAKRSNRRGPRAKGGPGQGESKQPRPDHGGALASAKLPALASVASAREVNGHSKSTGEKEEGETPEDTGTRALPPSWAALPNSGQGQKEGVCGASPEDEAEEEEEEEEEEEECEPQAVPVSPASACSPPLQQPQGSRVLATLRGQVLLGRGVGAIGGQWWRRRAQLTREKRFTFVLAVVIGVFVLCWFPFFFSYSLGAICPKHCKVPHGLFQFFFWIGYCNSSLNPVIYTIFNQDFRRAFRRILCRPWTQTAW
Method in brief: as §1

[5] = target: T5, cloned human or rodent CNS receptors, channels, and transporters (PDSP panel) (Rattus norvegicus, UniProt P16257)
T5 construct: expressed in transfected cells
Method in brief: as §1

[6] = target: T6, cloned human or rodent CNS receptors, channels, and transporters (PDSP panel) (Homo sapiens, UniProt P08912)
T6 construct: expressed in transfected cells
T6 sequence (P08912 1-532): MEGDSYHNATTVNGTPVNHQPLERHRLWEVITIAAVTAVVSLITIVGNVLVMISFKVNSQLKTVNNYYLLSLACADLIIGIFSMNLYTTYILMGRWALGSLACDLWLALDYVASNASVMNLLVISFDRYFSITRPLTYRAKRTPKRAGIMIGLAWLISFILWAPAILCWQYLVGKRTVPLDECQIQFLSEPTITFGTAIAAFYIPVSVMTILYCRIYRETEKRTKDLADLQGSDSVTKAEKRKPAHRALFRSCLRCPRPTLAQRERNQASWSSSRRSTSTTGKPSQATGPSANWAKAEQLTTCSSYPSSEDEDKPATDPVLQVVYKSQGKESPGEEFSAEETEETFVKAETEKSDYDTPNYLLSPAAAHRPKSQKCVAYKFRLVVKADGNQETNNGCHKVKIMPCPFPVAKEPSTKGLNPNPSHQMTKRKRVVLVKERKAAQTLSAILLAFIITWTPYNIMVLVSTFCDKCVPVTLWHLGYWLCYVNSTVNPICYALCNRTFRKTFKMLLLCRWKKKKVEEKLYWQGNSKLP
Method in brief: as §1

[7] = target: T7, cloned human or rodent CNS receptors, channels, and transporters (PDSP panel) (Homo sapiens, UniProt P35368)
T7 construct: expressed in transfected cells
T7 sequence (P35368 1-520): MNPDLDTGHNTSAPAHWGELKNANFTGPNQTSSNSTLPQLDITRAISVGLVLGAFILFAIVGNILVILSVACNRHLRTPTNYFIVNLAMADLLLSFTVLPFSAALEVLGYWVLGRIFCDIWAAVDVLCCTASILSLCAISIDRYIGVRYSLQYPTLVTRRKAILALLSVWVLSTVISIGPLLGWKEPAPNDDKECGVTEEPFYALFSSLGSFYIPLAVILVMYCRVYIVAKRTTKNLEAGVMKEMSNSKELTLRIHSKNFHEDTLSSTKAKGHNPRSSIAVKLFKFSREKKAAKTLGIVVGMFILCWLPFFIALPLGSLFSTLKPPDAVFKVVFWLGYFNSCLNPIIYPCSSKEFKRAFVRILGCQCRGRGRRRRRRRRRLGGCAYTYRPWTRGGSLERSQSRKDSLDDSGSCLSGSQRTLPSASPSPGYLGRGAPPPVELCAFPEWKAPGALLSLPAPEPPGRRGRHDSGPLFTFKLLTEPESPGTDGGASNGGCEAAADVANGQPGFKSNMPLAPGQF
Method in brief: as §1

T2 sequence (P21728 whole entry): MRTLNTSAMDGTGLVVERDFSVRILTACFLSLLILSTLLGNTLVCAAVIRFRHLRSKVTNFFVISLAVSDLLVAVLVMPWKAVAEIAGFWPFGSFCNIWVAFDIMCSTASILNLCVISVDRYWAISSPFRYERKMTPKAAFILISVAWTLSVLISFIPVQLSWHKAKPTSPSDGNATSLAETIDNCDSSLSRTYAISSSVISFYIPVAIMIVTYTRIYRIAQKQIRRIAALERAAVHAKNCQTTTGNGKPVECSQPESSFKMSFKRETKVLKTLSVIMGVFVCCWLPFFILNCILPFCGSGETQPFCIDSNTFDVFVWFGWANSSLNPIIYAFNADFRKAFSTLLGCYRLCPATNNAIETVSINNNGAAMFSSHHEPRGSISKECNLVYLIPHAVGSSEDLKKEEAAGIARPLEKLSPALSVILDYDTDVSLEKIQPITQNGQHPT
T1 sequence (P20309 whole entry): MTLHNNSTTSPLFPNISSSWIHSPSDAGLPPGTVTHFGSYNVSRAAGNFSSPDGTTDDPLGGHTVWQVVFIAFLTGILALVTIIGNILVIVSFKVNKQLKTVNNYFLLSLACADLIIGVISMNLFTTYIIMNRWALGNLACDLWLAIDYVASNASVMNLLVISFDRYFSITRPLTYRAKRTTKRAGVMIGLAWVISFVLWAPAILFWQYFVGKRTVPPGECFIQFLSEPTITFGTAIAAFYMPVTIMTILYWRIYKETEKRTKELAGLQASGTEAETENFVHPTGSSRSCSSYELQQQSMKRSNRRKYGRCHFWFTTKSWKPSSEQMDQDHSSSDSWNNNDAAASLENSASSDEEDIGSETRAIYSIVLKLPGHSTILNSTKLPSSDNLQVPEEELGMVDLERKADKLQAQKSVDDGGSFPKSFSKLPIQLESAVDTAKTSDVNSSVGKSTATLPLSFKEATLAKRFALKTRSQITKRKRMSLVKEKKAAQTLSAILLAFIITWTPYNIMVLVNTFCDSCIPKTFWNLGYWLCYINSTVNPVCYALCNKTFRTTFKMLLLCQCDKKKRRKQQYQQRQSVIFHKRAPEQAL
T3 sequence (P28221 whole entry): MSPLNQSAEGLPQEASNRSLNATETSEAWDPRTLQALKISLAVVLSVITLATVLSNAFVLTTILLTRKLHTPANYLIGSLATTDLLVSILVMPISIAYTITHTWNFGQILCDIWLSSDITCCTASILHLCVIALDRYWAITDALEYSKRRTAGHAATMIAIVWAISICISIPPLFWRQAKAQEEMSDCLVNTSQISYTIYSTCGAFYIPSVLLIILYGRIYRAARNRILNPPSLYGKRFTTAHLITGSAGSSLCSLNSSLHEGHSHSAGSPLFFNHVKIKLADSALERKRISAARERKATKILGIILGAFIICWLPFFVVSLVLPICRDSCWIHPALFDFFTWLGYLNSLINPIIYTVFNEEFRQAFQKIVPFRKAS

## O=C(NC1CC1)C(=O)C(Cc1ccccc1)NC(=O)[C@H]1CCC(=O)N1Cc1ccccc1 (stereo partly shown) [UNC10302676A, ABT-957 (Alicapistat)]
[1]; M3, mean inhibition
  Mean %: -7.1%
[1]; M3, replicate 1
  Inhibition 1: 3.98%
[1]; M3, replicate 2
  Inhibition 2: -16.69%
[1]; M3, replicate 3
  Inhibition 3: -10.47%
[1]; M3, replicate 4
  Inhibition 4: -5.21%
[2]; D1, mean inhibition
  Mean %: 0%
[2]; D1, replicate 1
  Inhibition 1: 13.52%
[2]; D1, replicate 2
  Inhibition 2: -11.9%
[2]; D1, replicate 3
  Inhibition 3: -21.45%
[2]; D1, replicate 4
  Inhibition 4: 19.83%
[3]; 5-HT1D, mean inhibition
  Mean %: 14.89%
[3]; 5-HT1D, replicate 1
  Inhibition 1: 25.3%
[3]; 5-HT1D, replicate 2
  Inhibition 2: 16.14%
[3]; 5-HT1D, replicate 3
  Inhibition 3: 8.22%
[3]; 5-HT1D, replicate 4
  Inhibition 4: 9.89%
[4]; Alpha2B, mean inhibition
  Mean %: 8.48%
[4]; Alpha2B, replicate 1
  Inhibition 1: 16.01%
[4]; Alpha2B, replicate 2
  Inhibition 2: 17.34%
[4]; Alpha2B, replicate 3
  Inhibition 3: -9.53%
[4]; Alpha2B, replicate 4
  Inhibition 4: 10.08%
[5]; PBR, replicate 1
  Inhibition 1: 2.97% and 17.9%
[5]; PBR, replicate 2
  Inhibition 2: -4.68% and 2.11%
[5]; PBR, replicate 3
  Inhibition 3: 1.91% and 4.11%
[5]; PBR, replicate 4
  Inhibition 4: -8.81% and 7.78%
[6]; M5, mean inhibition
  Mean %: -3.53%
[6]; M5, replicate 1
  Inhibition 1: 2.18%
[6]; M5, replicate 2
  Inhibition 2: -7.48%
[6]; M5, replicate 3
  Inhibition 3: -4.57%
[6]; M5, replicate 4
  Inhibition 4: -4.26%
[7]; Alpha1B, mean inhibition
  Mean %: -8.47%
[7]; Alpha1B, replicate 1
  Inhibition 1: -8.91%
[7]; Alpha1B, replicate 2
  Inhibition 2: -13.01%
[7]; Alpha1B, replicate 3
  Inhibition 3: -14.75%
[7]; Alpha1B, replicate 4
  Inhibition 4: 2.78%

## c1cn2cc(-c3ccc4cn[nH]c4c3)nc(Nc3ccc(N4CCOCC4)cc3)c2n1 [UNC10302678A, Entospletinib (GS-9973)]
[1]; Receptor M3, 10 μM
  Inhibition 1: 13.32%
  Inhibition 2: 23.97%
  Inhibition 3: 7.51%
  Inhibition 4: 7.37%
[1]; Receptor M3, 10 μM, mean of Inhibition 1-4
  Mean %: 13.04%
[2]; Receptor D1, 10 μM
  Inhibition 1: 2.51%
  Inhibition 2: -3%
  Inhibition 3: -32.95%
  Inhibition 4: 7.37%
[2]; Receptor D1, 10 μM, mean of Inhibition 1-4
  Mean %: -6.52%
[3]; Receptor 5-HT1D, 10 μM
  Inhibition 1: 30.71%
  Inhibition 2: 10.31%
  Inhibition 3: -25.09%
  Inhibition 4: 3.23%
[3]; Receptor 5-HT1D, 10 μM, mean of Inhibition 1-4
  Mean %: 4.79%
[4]; Receptor Alpha2B, 10 μM
  Inhibition 1: 1.15%
  Inhibition 2: 1.83%
  Inhibition 3: -12.73%
  Inhibition 4: -4.05%
[4]; Receptor Alpha2B, 10 μM, mean of Inhibition 1-4
  Mean %: -3.45%
[5]; Receptor PBR, 10 μM
  Inhibition 1: 4.64% and -2.11%
  Inhibition 4: 21.43% and 15.83%
[5]; Receptor PBR, 10 μM, mean of Inhibition 1-4
  Mean %: 13.23% and 8.44%
[6]; Receptor M5, 10 μM
  Inhibition 1: -6.98%
  Inhibition 2: -7.99%
  Inhibition 3: 1.47%
  Inhibition 4: 5.9%
[6]; Receptor M5, 10 μM, mean of Inhibition 1-4
  Mean %: -1.9%
[7]; Receptor Alpha1B, 10 μM
  Inhibition 1: 3.98%
  Inhibition 2: -28.67%
  Inhibition 3: -18.82%
  Inhibition 4: -2.78%
[7]; Receptor Alpha1B, 10 μM, mean of Inhibition 1-4
  Mean %: -11.57%
